Measured values from patent EP1873155A1, “Inhibitors of the HIV integrase enzyme” (PFIZER INC., priority 2004, dated 2005).

Each molecule was assayed on RF strain of HIV-1 (assay: HIV-1 cell protection assay (XTT dye reduction)). Conditions: Human immunodeficiency virus 1, CEM-SS, 144 h.
Type: cell-based
Experimental: Example 61: HIV-1 Cell Protection Assay
The antiviral activities of potential modulator compounds (test compounds) were determined in HIV-1 cell protection assays using the RF strain of HIV-1, CEM-SS cells, and the XTT dye reduction method (Weislow, O.S. et al., J. Natl. Cancer Inst. 81: 577-586 (1989)). Subject cells were infected with HIV-1 RF virus at an moi of 0.025 to 0.819 or mock infected with medium only and added at 2 x 10^4 cells per well into 96 well plates containing half-log dilutions of test compounds. Six days later, 50 µl of XTT solution (1 mg/ml XTT tetrazolium and […] phenazine methosulfate) were added to the wells and the plates were reincubated for four hours. Viability, as determined by the amount of XTT formazan produced, was quantified spectrophotometrically by absorbance at 450 nm.
Data from CPE assays were expressed as the percent of formazan produced in compound-treated cells compared to formazan produced in wells of uninfected, compound-free cells. […] The therapeutic index was calculated by dividing the cytotoxicity (CC50) by the antiviral activity (EC50).
`O=C1c2ncc3c(ccn3Cc3ccc(F)cc3)c2CCN1O` [Example 2, 3-(4-Fluorobenzyl)-7-hydroxy-3,7,8,9-tetrahydro-6H-pyrrolo[2,3-c]-1,7-naphthyridin-6-one] was tested, and the EC50 was 0.6 nM. `O=C(NCC(F)(F)F)c1cn(Cc2ccc(F)cc2)c2cnc3c(=O)n(O)ccc3c12` [Example 30, 3-(4-fluorobenzyl)-7-hydroxy-6-oxo-N-(2,2,2-trifluoroethyl)-6,7-dihydro-3H-pyrrolo[2,3-c]-1,7-naphthyridine-1-carboxamide] showed an EC50 of 13 nM.

Same assay, conditions: Human immunodeficiency virus 1, CEM-SS, 144 h, CEM-SS cells infected with HIV-1 RF, six days, XTT formazan; read-out: EC50
In the case of `O=C1c2ncc3c(ccn3Cc3ccc(F)cc3)c2CCCN1O` [Example 45, 3-(4-fluorobenzyl)-7-hydroxy-7,8,9,10-tetrahydropyrrolo[3',2' :4,5]pyrido[2,3-c]azepin-6(3H)-one], the EC50 is reported as 20 nM. Molecule `CCCNCc1cn(Cc2ccc(F)cc2)c2cnc3c(=O)n(O)ccc3c12` [Example 40, 3-(4-fluorobenzyl)-7-hydroxy-1-[(propylamino)methyl] -3,7-dihydro-6H-pyrrolo[2,3-c]-1,7-naphthyridin-6-one] has an EC50 of 2 nM. `O=c1c2ncc3c(c(CNCc4ccccn4)cn3Cc3ccc(F)cc3)c2ccn1O` [Example 44, 3-(4-fluorobenzyl)-7-hydroxy-1-{[(pyridin-2-ylmethyl)amino]methyl}-3,7-dihydro-6H-pyrrolo[2,3-c]-1,7-naphthyridin-6-one] gave an EC50 of 0.74 nM. `O=c1c2ncc3c(c(S(=O)(=O)NCC(F)(F)F)cn3Cc3ccc(F)cc3)c2ccn1O` [Example 24, 3-(4-fluorobenzyl)-7-hydroxy-6-oxo-N-(2,2,2-trifluoroethyl)-6,7-dihydro-3H-pyrrolo[2,3-c]-1,7-naphthyridine-1-sulfonamide] was tested, and the EC50 was 22 nM. Work on `CN1CCN(Cc2cn(Cc3ccc(F)cc3)c3cnc4c(=O)n(O)ccc4c23)CC1` [Example 7, 3-(4-fluorobenzyl)-7-hydroxy-1-[(4-methylpiperazin-1-yl)methyl]-3,7-dihydro-6H-pyrrolo[2,3-c]-1 ,7-naphthyridin-6-one] yielded an EC50 of 8 nM. Molecule `O=C1CN(Cc2cn(Cc3ccc(F)cc3)c3cnc4c(=O)n(O)ccc4c23)CCN1` [Example 6, 3-(4-fluorobenzyl)-7-hydroxy-1-[(3-oxopiperazin-1-yl)methyl]-3,7-dihydro-6H-pyrrolo[2,3-c]-1,7-naphthyridin-6-one] has an EC50 of 12 nM. For `COCCOCc1cn(Cc2ccc(F)cc2)c2cnc3c(=O)n(O)ccc3c12` [Example 36, 3-(4-fluorobenzyl)-7-hydroxy-1-[(2-methoxyethoxy)methyl]-3,7-dihydro-6H-pyrrolo[2,3-c]-1,7-naphthyridin-6-one], the EC50 was 0.4 nM. `CN(Cc1cnn(-c2ccccc2)c1)Cc1cn(Cc2ccc(F)cc2)c2cnc3c(=O)n(O)ccc3c12` [Example 59, 3-(4-fluorobenzyl)-7-hydroxy-1-({methyl[(1-phenyl-1 H-pyrazol-4-yl)methyl]amino}methyl)-3,7-dihydro-6H-pyrrolo[2,3-c]-1,7-naphthyridin-6-one] gave an EC50 of 0.74 nM. For `O=c1c2ncc3c(c(CNC4(CO)CCCC4)cn3Cc3ccc(F)cc3)c2ccn1O` [Example 39, 3-(4-fluorobenzyl)-7-hydroxy-1-({[1-(hydroxymethyl)cyclopentyl]amino}methyl)-3,7-dihydro-6H-pyrrolo[2,3-c]-1,7-naphthyridin-6-one], the EC50 was 4 nM.

Each molecule was assayed against HIV-1 integrase (assay: Integrase strand-transfer scintillation proximity assay). Conditions: full-length wild type HIV-1 integrase (SF1), 50 min at 37°C.
Type: biochemical
Experimental: The annealed product represents preprocessed viral ds-DNA derived from the LTR U5 sequence of the viral genome.
The radiolabeled product was purified using a NENSORB cartridge and stored in stabilized aqueous solution (PerkinElmer).
White, polystyrene, flat-bottom, non-binding surface, 96-well plates were purchased from Corning.
Supernant was discarded and pellet resuspended in 50 mM HEPES pH 7.0, 750 mM NaCl, 5 mM DTT, 1 mM AEBSF and homogenized in a 40 mL Dounce homogenizer for 20 minutes on ice. […] Supernant was discarded and pellet resuspended in 50 mM HEPES pH 7.0, 750 mM NaCl, 25 mM CHAPS, 5 mM DTT, 1 mM AEBSF.
Supernant was then diluted 1:1 with 50 mM HEPES pH 7.0, 25 mM CHAPS, 1 mM DTT, 1 mM AEBSF and loaded onto a Q-Sepharose column pre-equilibrated with 50 mM HEPES, pH 7.0, 375 mM NaCl, 25 mM CHAPS, 1 mM DTT, 1 mM AEBSF. The flow through peak was collected and NaCl diluted to 0.1 M with 50 mM HEPES pH 7.0, 25 mM CHAPS, 1 mM DTT, 0.5 mM AEBSF and loaded onto a SP-Sepharose column pre-equilibrated with 50 mM HEPES pH 7.0, 100 mM NaCl, 25 mM CHAPS, 1 mM DTT, 0.5 mM AEBSF. After washing the column with the equilibration buffer, a 100 to 400 mM NaCl gradient was run. The eluted integrase was concentrated and run on a S-300 gel diffusion column using 50 mM HEPES pH 7.0, 500 mM NaCl, 25 mM CHAPS, 1 mM DTT, 0.5 mM AEBSF. […]
Molecule “1-[({[(4R)-2,2-dimethyl-1,3-dioxolan-4-yl]methyl}amino)meth yl]-3-(4-fluorobenzyl)-7-hydroxy-3,7-dihydro-6H-pyrrolo[2,3-c]-1,7-naphthyridin-6-one [Example 35]” has an IC50 of 45 nM. Work on “(3R)-1-{[3-(4-fluorobenzyl)-7-hydroxy-6-oxo-6,7-dihydro-3H-pyrrolo[2,3-c]-1,7-naphthyridin-1-yl]methyl)-N,N-dimethylpyrrolidine-3-carboxamide [Example 17]” yielded an IC50 of 9 nM.
